Residues, ends and D or L forms follow the SMILES beside them. *: point of attachment. Cbz = O=C(OCc1ccccc1)*
B1: chicken ovalbumin (protein)
chain: MGSIGAASMEFCFDVFKELKVHHANENIFYCPIAIMSALAMVYLGAKDSTRTQINKVVRFDKLPGFGDSIEAQCGTSVNVHSSLRDILNQITKPNDVYSFSLASRLYAEERYPILPEYLQCVKELYRGGLEPINFQTAADQARELINSWVESQTNGIIRNVLQPSSVDSQTAMVLVNAIVFKGLWEKAFKDEDTQAMPFRVTEQESKPVQMMYQIGLFRVASMASEKMKILELPFASGTMSMLVLLPDEVSGLEQLESIINFEKLTEWTSSNVMEERKIKVYLPRMKMEEKYNLTSVLMAMGITDVFSSSANLSGISSAESLKISQAVHAAHAEINEAGREVVGSAEAGVDAASVSEEFRADHPFLFCIKHIATNAVLFFGRCVSP

Assays:
BMDCs = assay: […] antigen presentation on DCs; format: cell-based, C57BL/6 mouse; conditions: CpG adjuvant, treatment 12-24 h, flow cytometry
CRBN protein = CRBN protein (Homo sapiens, UniProt Q96SW2); assay: Nano ITC measurement of PROTAV-CRBN binding; conditions: data did not fit the binding model
Chain of CRBN protein (Q96SW2 whole entry, species assumed): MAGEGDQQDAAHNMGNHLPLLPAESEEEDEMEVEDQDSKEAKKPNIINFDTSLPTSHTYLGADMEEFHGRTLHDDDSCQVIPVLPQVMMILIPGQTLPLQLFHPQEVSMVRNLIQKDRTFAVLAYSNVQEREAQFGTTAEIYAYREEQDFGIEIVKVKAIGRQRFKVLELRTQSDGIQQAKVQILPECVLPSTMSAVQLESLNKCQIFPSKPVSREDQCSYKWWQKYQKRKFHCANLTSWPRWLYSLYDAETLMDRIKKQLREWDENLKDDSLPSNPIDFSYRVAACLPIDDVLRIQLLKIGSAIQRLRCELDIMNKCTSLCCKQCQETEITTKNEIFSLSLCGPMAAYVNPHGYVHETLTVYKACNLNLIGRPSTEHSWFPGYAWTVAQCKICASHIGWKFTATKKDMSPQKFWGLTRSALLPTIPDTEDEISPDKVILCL

Molecule | H-2Kb/SIINFEKL presentation on DCs (in words) (BMDCs) | Binding to CRBN (in words) (CRBN protein)
CC(C)C[C@@H](C=O)NC(=O)[C@H](CC(C)C)NC(=O)[C@H](CC(C)C)NC(=O)OCc1ccccc1 [MG132] (Cbz-Leu-Leu-Leu-aldehyde) | reduced the level of SIINFEKL presentation on DCs | 
B1 |  | negligible binding

— publication PMC11580958 (bioRxiv, 2024)
